Test results from US6352824B1, “Redox reversible bipyridyl-osmium complex conjugates” (Roche Diagnostics Corporation, priority 1998, dated 2002).

Legend:
[1] = molecular target: T1, HbAlc epitope of hemoglobin in lysed blood (Homo sapiens, UniProt P68871); experiment: Blood denaturing for electrochemical HbAlc immunoassay
T1 construct: from tissue; host or cells: whole blood, lysed (freeze/thaw) and denatured
Description: Blood lysis is necessary to release the hemoglobin followed by denaturing to expose the HbAlc epitope. Lysis can easily be accomplished via surfactants, osmotic effects of dilution with water, and directly by many denaturants. […] Conversely, denaturing the lysed blood with a variety of known denaturants to expose the HbAlc epitope has shown significant suppression of the electrochemical response, inhibiting measurement of an HbAlc dose response.
Denaturing the sample for antibody recognition without severely fouling the electrode surface is important for successful development of an HbAlc immunoassay. Although LiSCN has been used almost exclusively to show feasibility, it has many limitations that would hinder its use in the disposable. Citric acid, a solid at RT may offer benefits as a denaturant if it could be dried onto a strip followed by a diluent to adjust the pH to neutral. Acid or base blood denaturing followed by a final pH adjustment with a buffered diluent is an area worth further evaluation. One problem that was initially encountered was precipitation in adjusting the pH back to neutral, which can be overcome by using a different buffer or with the addition of surfactants.

[2] = tested on: PAB IS (polyclonal immunosorbent purified HbAlc antibody); experiment: Inhibition of osmium mediator label current with antibody; assay type: binding, sheep
Description: 3. Antibodies for the analytes (HbAlc and HbA0) which react specifically with the N-terminal peptides which have been incorporated into the conjugate are provided by standard methods for producing polyclonal antibodies. In this case, sheep were immunized with carrier proteins to which were conjugated the synthetic peptide sequences for HbAlc and HbA0. Following the appropriate immunization schedule, the sheep were bled, and the antibody isolated from the blood via ion exchange chromatography, followed by immunosorbent purification on a column of the same N-terminal peptide with a different linker.
(§1) Polyclonal DE (ion-exchange) purified sheep antibody is used in the TinaQuant HbAlc assay. IS (immunosorbent) antibody is prepared using standard IS purification methodology. Samples of a monoclonal antibody were also obtained for evaluation. Inhibition curves were performed in solution with all mixing occurring in microcentrifuge tubes. Inhibition curves with the three hemoglobin Alc antibodies (PAB IS, PAB DE, and MAB) were generated by fixing OS—DSG—Alc at 5 μM and varying the antibody concentration. […] From the inhibition curves we were able to select reasonable concentrations of antibody for maximum reversal with Alc samples.
While these feasibility studies for a HbAlc immunoassay used an enzyme mediated amplification method. […]

[3] = Storage stability of osmium mediator-peptide conjugates; conditions: for Stability in solution: stored as solution
Experimental: Stability of the mediator labels were also evaluated by monitoring % inhibition values over time.

[4] = tested on: MAB (monoclonal HbAlc antibody); experiment: Inhibition of osmium mediator label current with antibody; assay type: binding
Experimental: as §1
(§2) While these feasibility studies for a HbAlc immunoassay used an enzyme mediated amplification method. (Glucdor/PQQ/glucose was used to regenerate reduced mediator after oxidation at the electrode surface providing a higher diffusion controlled current is given by the cottrell equation), they are considered to be indicative of results attainable with the use of IDA electrodes with bipotentiostatic control in accordance with this invention.

[5] = tested on: PAB DE (polyclonal ion-exchange purified HbAlc antibody); experiment: as above; assay type: binding, sheep
Experimental: as §1, §2

Sheep B<HBA0> = experiment: as above; assay type: binding
Description: HbAlc assay requires measuring both Al c concentration and total hemoglobin concentration and reports the results as a ratio of these two measurements (%HbAlc). It is advantageous to assay both Alc and total hemoglobin using same principle because ratioing would minimize biases due to environmental effects. Thus antibody has been raised to bind specifically to hemoglobins with unglycosylated N-terminus, i.e. with an epitope sequence of Val-His-Leu-Thr(SEQ ID NO:5). Similarly, nonnative amino acid is added to the sequence to facilitate conjugation. The peptides used for total hemoglobin measurement is termed as A0 peptide. A0 peptides that have been used in the preparation of Os mediator-peptide conjugates include Val-His-Leu-Thr-Cys(SEQ ID NO:6) and Val-His-Leu-Thr-Lys(SEQ ID NO:7).

Zymed rabbit antibodies = experiment: as above; assay type: binding
Experimental: (§3) Mediator concentration dose response, inhibition with antibody and reversal with a BSA—Alc polyhaptan were evaluated and summarized in Table 5.

HbA0 antibody = experiment: Inhibition reversal with A0HB-peptide#1; assay type: binding
Experimental: as §3

glucose oxidase = glucose oxidase (Aspergillus niger, UniProt P13006); conditions: with glucose oxidase; cited from earlier work
glucose oxidase, sequence (P13006 17-605, species assumed): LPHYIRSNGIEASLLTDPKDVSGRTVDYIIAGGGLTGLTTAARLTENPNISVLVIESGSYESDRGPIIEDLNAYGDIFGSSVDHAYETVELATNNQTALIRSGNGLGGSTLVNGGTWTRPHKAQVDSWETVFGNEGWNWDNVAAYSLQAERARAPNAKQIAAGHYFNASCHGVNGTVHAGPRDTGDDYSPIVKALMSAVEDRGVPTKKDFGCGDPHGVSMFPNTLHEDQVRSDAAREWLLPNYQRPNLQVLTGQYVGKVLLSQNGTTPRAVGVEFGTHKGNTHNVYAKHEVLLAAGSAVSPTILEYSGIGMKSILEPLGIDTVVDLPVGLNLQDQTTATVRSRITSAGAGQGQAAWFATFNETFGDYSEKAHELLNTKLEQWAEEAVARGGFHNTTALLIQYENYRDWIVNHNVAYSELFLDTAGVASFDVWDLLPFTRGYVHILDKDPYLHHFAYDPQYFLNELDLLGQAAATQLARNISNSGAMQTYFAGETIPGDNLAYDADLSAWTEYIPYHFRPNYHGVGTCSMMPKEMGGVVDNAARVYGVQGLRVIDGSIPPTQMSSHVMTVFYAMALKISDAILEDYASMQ

T1 sequence (P68871 2-147 limits assumed): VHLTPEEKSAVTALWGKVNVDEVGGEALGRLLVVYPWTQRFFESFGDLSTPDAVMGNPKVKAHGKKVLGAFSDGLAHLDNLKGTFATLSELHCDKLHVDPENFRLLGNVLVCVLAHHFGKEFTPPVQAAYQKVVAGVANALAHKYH

For Cl [Hydrochloric Acid], the “Evidence of blood denaturing” value [1] was “Evidence of blood denaturing was seen by all: “solution”.

For N#C[S-].[K+] [KSCN], the “Blood HbAlc dose response with denatured blood” value (“Blood HbAlc dose response” below) [1] was “Initial work did not show a dose response with KSCN”.

With N#C[S-].[Li+] [LiSCN] the “Blood HbAlc dose response” value [1] was “able to expose the Alc epitope and minimize protein fouling enough to measure an HbAlc dose response”.

For [Na+].[OH-] [NaOH], the “Evidence of blood denaturing” value [1] was “Evidence of denaturing: “solution turned brown.””.

For CC(C)CC(NC(=O)C(Cc1cnc[nH]1)NC(=O)C(NCC1(O)OCC(O)C(O)C1O)C(C)C)C(=O)NC(C(=O)NC(CCCCNC(=O)CCCC(=O)NCCc1c[n+]([Os]23([Cl])([n+]4ccccc4-c4cccc[n+]42)[n+]2ccccc2-c2cccc[n+]23)c[nH]1)C(=O)O)C(C)O (stereo not drawn) [Os-DSG-Alc], the “Inhibition with Antibody PAB IS” value [2] was “PAB IS (≦91%)”, the “Stability in lyophilized form” value ([3]; lyophilized) was “stable” and the “Stability frozen in solution” value ([3]; −20° C., 40 and 80 μM) was “stable”. For the same compound, the “Inhibition with Antibody MAB” value [4] was “MAB (≦78%)” and the “Inhibition with Antibody PAB DE” value [5] was “PAB DE (≦87%)”.

In the case of CC(C)CC(NC(=O)C(Cc1cnc[nH]1)NC(=O)C(N)C(C)C)C(=O)NC(C(=O)NC(CCCCNC(=O)CCCCCN1C(=O)CC(SCC(=O)NCCc2c[n+]([Os]34([Cl])([n+]5ccccc5-c5cccc[n+]53)[n+]3ccccc3-c3cccc[n+]34)c[nH]2)C1=O)C(=O)O)C(C)O (stereo not drawn) [Os-SATA-A0], the “Inhibition with Antibody Sheep B<HBA0>” value (Sheep B<HBA0>) is reported as at most 84%, the “Inhibition with Zymed rabbit antibodies” value (Zymed rabbit antibodies) is reported as “No” and the Stability in solution [3] is reported as “unstable in solu-”. For the same compound, the Reversal (HbA0 antibody) was “No”.

In the case of CC(C)CC(NC(=O)C(Cc1cnc[nH]1)NC(=O)C(NCC1(O)OCC(O)C(O)C1O)C(C)C)C(=O)NC(C(=O)NC(CCCCNC(=O)CCCCCN1C(=O)CC(SCC(=O)NCCc2c[n+]([Os]34([Cl])([n+]5ccccc5-c5cccc[n+]53)[n+]3ccccc3-c3cccc[n+]34)c[nH]2)C1=O)C(=O)O)C(C)O (stereo not drawn) [Os-SATA-Alc], the “Inhibition with Antibody PAB IS” value [2] is reported as “PAB IS (≦44%)” and the Stability in solution [3] is reported as “Stability similar”.

For [O-][Cl+3]([O-])([O-])O [Perchloric Acid], the “Evidence of blood denaturing” value [1] was “Evidence of blood denaturing was seen by all: “solution”.

In the case of O=S(=O)(O)O [Sulfuric Acid], the “Evidence of blood denaturing” value [1] is reported as “Evidence of blood denaturing was seen by all: “solution”.

With CCCCCCCCCCCCCC[N+](C)(C)C.[Br-] [TTAB, Tetra decyltrimethyl ammonium bromide] the “Evidence of blood denaturing” value [1] was “Evidence of denaturing: “solution turned green””.

In the case of O=C(O)CC(O)(CC(=O)O)C(=O)O [citric acid], the “Blood HbAlc dose response” value [1] is reported as “able to expose the Alc epitope and minimize protein fouling enough to measure an HbAlc dose response” and the “Evidence of blood denaturing” value [1] is reported as “Evidence of blood denaturing was seen by all: “solution”.

For bis(bipyridyl) imidazolyl chloroosmium, the “mediation kinetics relative to ferricyanide” value (glucose oxidase) is given as “about 500 times faster”.
